Experimental data reported in ChEMBL document CHEMBL1201862, “PubChem BioAssay data set” (2004).
Calls of active or inactive are those of the source.

Experiments:
[1] = blockers of CAL PDZ–TMR peptide complex – biochemical, fluorescence polarization, untagged CAL PDZ, cherry-pick, set 2, dose response (AID 602254); assay type: functional
[2] = Luminescence Cell-Based Dose Confirmation HTS to Identify Inhibitors of Platelet Dense Granule Release. [Related pubchem assays: 1663 (Primary HTS), 1678 (Summary of Project)]; assay type: functional
[3] = molecular target: Luciferin 4-monooxygenase (Photinus pyralis, UniProt P08659); experiment: inhibition of purified Photinus pyralis luciferase – biochemical, luminescence, dose response (AID 1891)
Chain of Luciferin 4-monooxygenase (P08659 whole entry): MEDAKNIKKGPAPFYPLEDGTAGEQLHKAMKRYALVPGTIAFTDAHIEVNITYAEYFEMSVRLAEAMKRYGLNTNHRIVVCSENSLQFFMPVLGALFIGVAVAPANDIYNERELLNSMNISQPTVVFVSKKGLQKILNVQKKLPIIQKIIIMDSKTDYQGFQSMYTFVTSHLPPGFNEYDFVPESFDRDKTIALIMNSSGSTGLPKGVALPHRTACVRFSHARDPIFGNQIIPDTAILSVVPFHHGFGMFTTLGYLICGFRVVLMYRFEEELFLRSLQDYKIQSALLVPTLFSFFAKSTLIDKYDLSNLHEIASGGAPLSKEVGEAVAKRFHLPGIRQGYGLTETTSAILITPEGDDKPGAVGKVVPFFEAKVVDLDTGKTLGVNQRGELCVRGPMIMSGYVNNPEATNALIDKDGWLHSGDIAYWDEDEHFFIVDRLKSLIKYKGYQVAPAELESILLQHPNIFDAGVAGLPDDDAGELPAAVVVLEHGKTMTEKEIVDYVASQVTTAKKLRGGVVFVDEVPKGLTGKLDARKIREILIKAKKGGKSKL

[4] = cAMP pathway inhibition in counterscreen cell line – TR-FRET cAMP detection, counter-screen for MC4R biased antagonist project, dose response (AID 602305); assay type: functional, cell-based;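 further: U2OS cells stimulated with forskolin near its EC80 as the cAMP inducer; potency is for inhibition of forskolin-stimulated cAMP signaling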
Melanocortin receptor 4 [5] = molecular target: T1, Melanocortin receptor 4 (Homo sapiens, UniProt P32245); experiment: inhibitors of MC4R cAMP signaling – cell-based, TR-FRET, biased antagonists, dose response (AID 602298); assay type: functional;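 further: antagonist potency against agonist-stimulated cAMP production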
T1 sequence (P32245 whole entry): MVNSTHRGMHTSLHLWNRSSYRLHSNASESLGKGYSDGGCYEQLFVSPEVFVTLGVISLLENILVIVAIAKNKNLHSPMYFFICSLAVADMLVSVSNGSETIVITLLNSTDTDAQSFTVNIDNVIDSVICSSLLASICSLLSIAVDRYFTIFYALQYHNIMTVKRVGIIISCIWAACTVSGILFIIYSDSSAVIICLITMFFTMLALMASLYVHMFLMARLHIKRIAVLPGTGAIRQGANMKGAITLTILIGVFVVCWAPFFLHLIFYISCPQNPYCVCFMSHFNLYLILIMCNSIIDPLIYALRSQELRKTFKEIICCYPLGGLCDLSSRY

[6] = molecular target: 72 kDa type IV collagenase (Homo sapiens, UniProt P08253); experiment: Dose Response validation of uHTS RPN11 inhibitor hits using a MMP-2 Fluorescence assay.; assay type: functional
Chain of 72 kDa type IV collagenase (P08253 whole entry): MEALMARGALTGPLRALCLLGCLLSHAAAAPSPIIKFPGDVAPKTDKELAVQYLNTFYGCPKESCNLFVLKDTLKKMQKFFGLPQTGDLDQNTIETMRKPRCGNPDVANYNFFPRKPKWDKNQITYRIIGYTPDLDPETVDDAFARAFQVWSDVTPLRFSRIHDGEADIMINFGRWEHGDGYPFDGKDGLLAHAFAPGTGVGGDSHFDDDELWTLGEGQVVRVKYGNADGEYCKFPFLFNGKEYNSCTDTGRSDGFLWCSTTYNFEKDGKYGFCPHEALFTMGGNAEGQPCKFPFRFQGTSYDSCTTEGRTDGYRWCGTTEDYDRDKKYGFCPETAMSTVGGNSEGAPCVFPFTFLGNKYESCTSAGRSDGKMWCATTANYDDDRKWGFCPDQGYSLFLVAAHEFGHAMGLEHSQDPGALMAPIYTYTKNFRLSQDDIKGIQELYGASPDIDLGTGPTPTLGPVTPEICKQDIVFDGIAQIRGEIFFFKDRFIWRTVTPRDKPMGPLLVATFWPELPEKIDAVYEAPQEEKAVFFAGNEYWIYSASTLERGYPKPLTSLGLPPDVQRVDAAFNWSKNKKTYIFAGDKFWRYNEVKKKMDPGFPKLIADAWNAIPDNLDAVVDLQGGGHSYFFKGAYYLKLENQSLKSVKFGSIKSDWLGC

[7] = molecular target: T2, DNA repair protein RAD52 homolog (Homo sapiens, UniProt P43351); assay type: functional, biochemical
T2 sequence (P43351 whole entry): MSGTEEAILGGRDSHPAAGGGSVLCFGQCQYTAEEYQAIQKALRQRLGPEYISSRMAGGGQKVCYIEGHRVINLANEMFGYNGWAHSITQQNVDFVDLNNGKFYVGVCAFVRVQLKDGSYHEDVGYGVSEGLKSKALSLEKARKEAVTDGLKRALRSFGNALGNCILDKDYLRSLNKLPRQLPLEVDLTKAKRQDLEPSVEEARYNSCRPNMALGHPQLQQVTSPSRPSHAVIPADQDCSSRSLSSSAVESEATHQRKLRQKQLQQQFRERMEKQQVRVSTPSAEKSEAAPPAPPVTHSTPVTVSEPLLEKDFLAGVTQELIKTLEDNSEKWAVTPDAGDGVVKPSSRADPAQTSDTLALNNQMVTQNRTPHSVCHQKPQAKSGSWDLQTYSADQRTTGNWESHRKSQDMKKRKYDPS

[8] = molecular target: Heat shock protein HSP 90-alpha (Homo sapiens, UniProt P07900); assay type: functional, organism-based
[9] = molecular target: T3, Rac GTPase-activating protein 1 (Homo sapiens, UniProt Q9H0H5); experiment: blockers of MgcRacGAP-driven Rac1 GTP hydrolysis – biochemical, ADP Hunter fluorescence, primary and confirmatory, confirmation (AID 624330); assay type: functional
T3 sequence (Q9H0H5 whole entry): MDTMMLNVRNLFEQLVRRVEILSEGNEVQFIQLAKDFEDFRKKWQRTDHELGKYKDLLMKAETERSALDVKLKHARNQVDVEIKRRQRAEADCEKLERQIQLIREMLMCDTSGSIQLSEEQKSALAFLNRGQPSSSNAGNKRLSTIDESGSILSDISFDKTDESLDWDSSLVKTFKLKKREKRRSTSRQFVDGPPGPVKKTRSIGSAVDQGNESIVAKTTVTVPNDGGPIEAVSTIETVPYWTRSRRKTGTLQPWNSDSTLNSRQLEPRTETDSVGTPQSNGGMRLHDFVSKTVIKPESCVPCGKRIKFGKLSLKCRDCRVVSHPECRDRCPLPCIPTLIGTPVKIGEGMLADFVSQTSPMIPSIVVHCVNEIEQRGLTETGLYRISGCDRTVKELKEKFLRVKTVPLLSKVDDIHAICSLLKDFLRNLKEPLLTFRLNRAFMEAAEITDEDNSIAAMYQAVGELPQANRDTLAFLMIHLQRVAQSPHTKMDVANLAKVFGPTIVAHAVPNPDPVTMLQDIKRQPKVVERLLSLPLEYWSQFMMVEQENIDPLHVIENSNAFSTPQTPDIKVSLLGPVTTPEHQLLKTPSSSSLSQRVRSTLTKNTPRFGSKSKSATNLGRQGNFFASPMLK

Prothrombin = Prothrombin (Bos taurus, UniProt P00735); experiment: thrombin protease inhibitors – biochemical, fluorescence polarization, uHTS hits, dose response (AID 602369); assay type: functional
Melanocortin receptor 4 [10] = molecular target: T1, Melanocortin receptor 4; assay type: functional, cell-based
[11] = molecular target: 26S proteasome non-ATPase regulatory subunit 14 (Homo sapiens, UniProt O00487); experiment: inhibition of proteasome subunit RPN11 – biochemical, fluorescence polarization, uHTS hits, confirmation (AID 602368); assay type: functional
Chain of 26S proteasome non-ATPase regulatory subunit 14 (O00487 whole entry): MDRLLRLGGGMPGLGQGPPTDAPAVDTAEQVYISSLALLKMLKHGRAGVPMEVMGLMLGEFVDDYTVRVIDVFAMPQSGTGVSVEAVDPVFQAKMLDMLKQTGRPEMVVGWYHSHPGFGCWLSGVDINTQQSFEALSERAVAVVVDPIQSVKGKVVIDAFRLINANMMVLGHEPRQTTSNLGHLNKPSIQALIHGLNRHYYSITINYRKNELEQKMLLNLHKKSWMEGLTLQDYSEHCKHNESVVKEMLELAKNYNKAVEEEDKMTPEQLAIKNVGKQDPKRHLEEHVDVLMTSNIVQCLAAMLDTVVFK

[12] = viability loss in HeLa cells – cytotoxicity control for MgcRacGAP inhibitor project, dose response (AID 624300); assay type: functional
[13] = molecular target: T4, Sentrin-specific protease 7 (Homo sapiens, UniProt Q9BQF6); experiment: inhibition of human SENP7 cleavage activity – biochemical, luminescence, set 2, SAR follow-up (AID 588600); assay type: functional
T4 sequence (Q9BQF6 whole entry): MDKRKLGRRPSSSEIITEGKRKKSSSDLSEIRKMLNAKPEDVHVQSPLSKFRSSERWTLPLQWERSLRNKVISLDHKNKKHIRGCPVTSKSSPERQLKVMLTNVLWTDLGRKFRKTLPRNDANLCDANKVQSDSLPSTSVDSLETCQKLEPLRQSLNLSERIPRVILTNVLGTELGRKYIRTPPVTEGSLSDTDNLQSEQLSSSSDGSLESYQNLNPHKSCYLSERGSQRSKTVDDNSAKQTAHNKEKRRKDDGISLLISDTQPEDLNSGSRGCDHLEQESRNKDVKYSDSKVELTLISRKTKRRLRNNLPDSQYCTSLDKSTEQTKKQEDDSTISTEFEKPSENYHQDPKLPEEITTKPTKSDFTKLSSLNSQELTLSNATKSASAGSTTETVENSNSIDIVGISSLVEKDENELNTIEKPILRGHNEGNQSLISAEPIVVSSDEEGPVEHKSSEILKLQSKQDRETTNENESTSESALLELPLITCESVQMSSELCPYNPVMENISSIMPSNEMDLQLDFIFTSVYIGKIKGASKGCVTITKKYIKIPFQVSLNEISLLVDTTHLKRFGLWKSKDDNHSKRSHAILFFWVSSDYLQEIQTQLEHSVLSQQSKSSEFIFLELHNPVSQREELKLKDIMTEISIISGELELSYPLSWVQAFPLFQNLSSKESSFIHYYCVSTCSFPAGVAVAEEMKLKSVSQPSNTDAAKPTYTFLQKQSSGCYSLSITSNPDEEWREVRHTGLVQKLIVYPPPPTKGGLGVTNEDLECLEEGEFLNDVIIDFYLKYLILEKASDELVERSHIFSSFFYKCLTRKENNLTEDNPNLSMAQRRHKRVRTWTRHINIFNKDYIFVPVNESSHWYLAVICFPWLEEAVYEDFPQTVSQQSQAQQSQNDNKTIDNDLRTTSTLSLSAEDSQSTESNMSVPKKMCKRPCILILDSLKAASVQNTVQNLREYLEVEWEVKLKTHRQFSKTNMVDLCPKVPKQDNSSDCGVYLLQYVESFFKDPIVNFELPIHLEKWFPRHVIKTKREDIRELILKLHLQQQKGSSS

Caspase-3 = molecular target: T5, Caspase-3 (Homo sapiens, UniProt P42574); experiment: inhibition of recombinant caspase-3 activity – biochemical, luminescence, set 2, selectivity assay for SENP protease inhibitor project, SAR follow-up (AID 588599); assay type: functional
T5 sequence (P42574 whole entry): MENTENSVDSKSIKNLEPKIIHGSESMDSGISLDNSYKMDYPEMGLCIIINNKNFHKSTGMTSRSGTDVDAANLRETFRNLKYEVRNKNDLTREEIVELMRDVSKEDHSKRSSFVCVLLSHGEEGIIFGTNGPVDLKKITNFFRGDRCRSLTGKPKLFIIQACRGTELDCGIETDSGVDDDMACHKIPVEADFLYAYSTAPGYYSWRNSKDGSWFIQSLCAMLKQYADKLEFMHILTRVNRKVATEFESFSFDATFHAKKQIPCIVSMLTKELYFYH

[14] = molecular target: T6, Sentrin-specific protease 6 (Homo sapiens, UniProt Q9GZR1); experiment: inhibition of human SENP6 catalytic domain – biochemical, luminescence, set 2, SAR follow-up (AID 588598); assay type: functional
T6 sequence (Q9GZR1 whole entry): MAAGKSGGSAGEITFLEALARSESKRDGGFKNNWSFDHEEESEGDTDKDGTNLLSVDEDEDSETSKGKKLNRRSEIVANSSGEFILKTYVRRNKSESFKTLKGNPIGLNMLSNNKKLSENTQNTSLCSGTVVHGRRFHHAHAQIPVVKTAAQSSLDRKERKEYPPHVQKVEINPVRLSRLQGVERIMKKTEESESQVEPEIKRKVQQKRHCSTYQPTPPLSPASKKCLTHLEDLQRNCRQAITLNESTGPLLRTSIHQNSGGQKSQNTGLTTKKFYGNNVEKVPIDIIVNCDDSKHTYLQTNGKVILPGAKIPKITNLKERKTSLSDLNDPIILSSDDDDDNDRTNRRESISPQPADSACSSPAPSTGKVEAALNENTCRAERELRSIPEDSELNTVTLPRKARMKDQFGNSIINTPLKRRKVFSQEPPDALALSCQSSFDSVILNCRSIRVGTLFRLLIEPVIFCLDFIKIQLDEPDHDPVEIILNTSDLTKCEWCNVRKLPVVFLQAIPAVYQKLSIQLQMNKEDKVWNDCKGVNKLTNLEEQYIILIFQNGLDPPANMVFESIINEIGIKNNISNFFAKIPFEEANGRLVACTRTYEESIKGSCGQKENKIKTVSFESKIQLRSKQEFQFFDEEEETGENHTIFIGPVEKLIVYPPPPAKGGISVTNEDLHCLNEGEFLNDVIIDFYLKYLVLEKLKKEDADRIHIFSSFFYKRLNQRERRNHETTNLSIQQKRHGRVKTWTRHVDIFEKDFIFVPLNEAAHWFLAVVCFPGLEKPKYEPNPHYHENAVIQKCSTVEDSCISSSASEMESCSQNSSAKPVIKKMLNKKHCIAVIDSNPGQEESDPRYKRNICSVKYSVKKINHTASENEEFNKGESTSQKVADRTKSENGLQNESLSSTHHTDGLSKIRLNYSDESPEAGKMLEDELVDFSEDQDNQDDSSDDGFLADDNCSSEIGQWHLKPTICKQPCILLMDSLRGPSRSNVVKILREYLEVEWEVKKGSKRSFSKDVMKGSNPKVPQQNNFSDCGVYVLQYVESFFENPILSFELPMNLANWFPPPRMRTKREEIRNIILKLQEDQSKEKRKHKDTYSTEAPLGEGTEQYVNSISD

[15] = molecular target: T7, Sentrin-specific protease 8 (Homo sapiens, UniProt Q96LD8); experiment: inhibition of sentrin protease 8 – biochemical, luminescence, set 2, SAR follow-up (AID 588601); assay type: functional
T7 sequence (Q96LD8 whole entry): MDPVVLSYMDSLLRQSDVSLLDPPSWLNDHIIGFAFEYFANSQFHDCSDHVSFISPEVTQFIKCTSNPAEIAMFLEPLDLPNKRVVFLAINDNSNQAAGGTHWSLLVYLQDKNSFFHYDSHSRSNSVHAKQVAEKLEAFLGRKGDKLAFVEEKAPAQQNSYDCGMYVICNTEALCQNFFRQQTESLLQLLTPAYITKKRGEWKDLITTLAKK

| SMILES | IC50 [4] | IC50 (Melanocortin receptor 4 [5]) | IC50 [13] | IC50 (Caspase-3) | IC50 [14] | IC50 [15] | also measured |
| --- | --- | --- | --- | --- | --- | --- | --- |
| COC(=O)c1cc(S(=O)(=O)NCCc2ccc(SC)cc2)c[nH]1 |  |  |  |  |  |  | AC50 [1]: 112 µM (active); EC50 [2]: > 112 µM (not active); EC50 [3]: > 112 µM (not active) |
| CCOC(=O)c1sc(NC(=O)CCN2CCN(CC)CC2)c(C(=O)OCC)c1C | > 64.6 µM (inactive) | > 64.6 µM (inactive) |  |  |  |  |  |
| CCCCCCCCCCCCCCCC[N+](C)(C)Cc1ccc(F)cc1 | 59.8 µM (inactive) | 13.7 µM (inactive) |  |  |  |  | IC50 [6]: 91.8 µM (active); AC50 [7]: 5.28 µM (active); AC50 [8]: 4.51 µM (active); IC50 [9]: 83.4 µM (active); IC50 (Prothrombin): 37.4 µM (active); EC50 (Melanocortin receptor 4 [10]): > 89.2 µM (inactive); IC50 [11]: 61.1 µM (active); CC50 [12]: 15.7 µM (active) |
| COc1ccc(/C=C(/C#N)c2nc(-c3ccccc3C)no2)cc1O |  |  | > 99 µM (inactive) | > 99 µM (inactive) | > 99 µM (inactive) | > 99 µM (inactive) |  |
| Cc1[nH]c2ccccc2c1C(=O)C(=O)NCCn1ccc2ccccc21 |  |  | > 99 µM (inactive) | > 99 µM (inactive) | > 99 µM (inactive) | > 99 µM (inactive) |  |
